Measurements published in ChEMBL document CHEMBL1201862, “PubChem BioAssay data set” (2004).
Active and inactive are the calls of the source.

Assays:
Cysteine protease ATG4B = Cysteine protease ATG4B (Homo sapiens, UniProt Q9Y4P1); assay type: functional;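 also: Fluorescence-based dose-response confirmation assay measuring inhibition of ATG4B activity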
Phospholipase A2 = Phospholipase A2 (Homo sapiens, UniProt P04054); assay type: functional;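 also: confirmatory dose-response counterscreen on phospholipase A2, testing hits that came from an ultra-high-throughput screen for ATG4B inhibitors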
Phospholipase A2, sequence (P04054 whole entry): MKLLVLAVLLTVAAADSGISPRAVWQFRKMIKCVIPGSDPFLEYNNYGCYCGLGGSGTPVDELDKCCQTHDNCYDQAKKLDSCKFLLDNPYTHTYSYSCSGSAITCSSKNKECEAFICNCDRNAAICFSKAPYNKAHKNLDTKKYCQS

Aminopeptidase N = target: T1, Aminopeptidase N (Plasmodium falciparum FcB1/Columbia, UniProt O96935); assay: P. falciparum M1AAP inhibitors, biochemical, fluorogenic H-Leu-NHMec substrate, 1536-well (AID 1445); design: species or system Plasmodium falciparum 3D7, 3D7
T1 sequence (O96935 whole entry): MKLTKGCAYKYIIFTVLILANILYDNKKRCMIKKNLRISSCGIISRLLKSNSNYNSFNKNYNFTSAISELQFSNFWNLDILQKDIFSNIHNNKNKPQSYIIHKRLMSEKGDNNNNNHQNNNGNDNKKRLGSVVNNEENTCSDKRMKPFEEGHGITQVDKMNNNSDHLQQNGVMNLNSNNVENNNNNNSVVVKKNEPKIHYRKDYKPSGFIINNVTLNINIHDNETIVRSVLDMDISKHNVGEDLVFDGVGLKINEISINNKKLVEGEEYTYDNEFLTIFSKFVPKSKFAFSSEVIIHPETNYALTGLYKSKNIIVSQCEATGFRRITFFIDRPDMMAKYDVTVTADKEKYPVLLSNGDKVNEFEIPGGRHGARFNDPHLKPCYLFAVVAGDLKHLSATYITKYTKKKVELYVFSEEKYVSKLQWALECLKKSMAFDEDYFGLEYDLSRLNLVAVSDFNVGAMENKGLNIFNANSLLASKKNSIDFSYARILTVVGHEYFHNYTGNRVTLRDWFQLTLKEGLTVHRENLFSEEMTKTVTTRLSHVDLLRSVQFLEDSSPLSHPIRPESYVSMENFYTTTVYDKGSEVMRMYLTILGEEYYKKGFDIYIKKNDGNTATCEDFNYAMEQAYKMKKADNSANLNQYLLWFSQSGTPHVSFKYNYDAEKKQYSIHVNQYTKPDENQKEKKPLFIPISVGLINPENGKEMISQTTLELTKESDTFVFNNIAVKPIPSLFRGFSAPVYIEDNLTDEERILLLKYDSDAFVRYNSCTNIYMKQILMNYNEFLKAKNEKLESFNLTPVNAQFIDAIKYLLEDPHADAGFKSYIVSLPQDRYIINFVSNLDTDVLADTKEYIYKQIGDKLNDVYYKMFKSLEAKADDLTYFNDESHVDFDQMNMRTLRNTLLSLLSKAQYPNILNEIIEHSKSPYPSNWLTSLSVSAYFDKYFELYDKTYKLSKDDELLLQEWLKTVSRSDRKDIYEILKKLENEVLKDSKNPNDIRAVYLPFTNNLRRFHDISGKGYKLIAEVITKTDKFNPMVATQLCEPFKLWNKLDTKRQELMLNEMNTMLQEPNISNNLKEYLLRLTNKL

[1] = target: T2, Endoribonuclease toxin MazF (Escherichia coli K-12, UniProt P0AE70); assay: fluorescent RNA oligo signal without MazF, dose response, counter-screen for MazEF activator project, biochemical, fluorescence, single-stranded RNase substrate (AID 588502); assay type: functional
T2 sequence (P0AE70 whole entry): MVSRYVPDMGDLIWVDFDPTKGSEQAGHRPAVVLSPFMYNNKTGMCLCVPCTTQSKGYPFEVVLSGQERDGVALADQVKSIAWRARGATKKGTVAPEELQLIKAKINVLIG

[2] = target: T2, Endoribonuclease toxin MazF; assay: MazF toxin RNase activators, dose response, biochemical, fluorescence, single-stranded RNA substrate, uHTS hits (AID 588481); assay type: functional
[3] = target: T3, RNA-binding protein pos-1 (Caenorhabditis elegans, UniProt G5EF15); assay: inhibitors of POS-1/mex-3 RNA binding, dose response, biochemical, fluorescence polarization (AID 1964);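 also: purified POS-1 fused to maltose binding protein made in E. coli; potency of compounds blocking POS-1 binding to fluorescent RNA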
T3 sequence (G5EF15 whole entry): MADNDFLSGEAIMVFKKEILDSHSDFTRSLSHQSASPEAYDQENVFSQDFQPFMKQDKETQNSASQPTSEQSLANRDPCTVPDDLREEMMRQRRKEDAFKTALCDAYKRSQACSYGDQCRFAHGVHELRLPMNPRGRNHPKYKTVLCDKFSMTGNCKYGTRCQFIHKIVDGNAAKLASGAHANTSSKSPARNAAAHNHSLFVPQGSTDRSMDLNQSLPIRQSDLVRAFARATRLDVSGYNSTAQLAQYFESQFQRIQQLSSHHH

[4] = target: T4, Zinc finger protein mex-5 (Caenorhabditis elegans, UniProt Q9XUB2); assay: MEX-5/TCR-2 RNA interaction inhibitors, dose response, biochemical, C. elegans, fluorescence polarization (AID 1960)
T4 sequence (Q9XUB2 whole entry): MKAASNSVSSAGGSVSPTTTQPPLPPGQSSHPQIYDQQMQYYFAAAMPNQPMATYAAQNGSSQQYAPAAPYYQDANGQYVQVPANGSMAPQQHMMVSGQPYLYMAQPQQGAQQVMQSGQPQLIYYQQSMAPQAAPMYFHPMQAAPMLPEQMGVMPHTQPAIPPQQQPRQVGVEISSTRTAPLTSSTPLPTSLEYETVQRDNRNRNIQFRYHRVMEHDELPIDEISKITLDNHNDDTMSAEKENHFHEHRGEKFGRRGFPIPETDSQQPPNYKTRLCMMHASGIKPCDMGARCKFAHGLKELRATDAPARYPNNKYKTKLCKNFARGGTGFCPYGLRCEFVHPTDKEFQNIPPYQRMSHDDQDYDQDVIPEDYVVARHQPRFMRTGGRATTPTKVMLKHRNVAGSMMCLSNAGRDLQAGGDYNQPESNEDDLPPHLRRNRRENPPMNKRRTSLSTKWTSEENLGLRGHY

[5] = cytotoxicity in HEK-293T cells, dose response, cytotoxicity control for BCR NF-kB inhibitor project, luminescence, B-cell screen hits (AID 489021); assay type: functional, cell-based;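 also: HEK-293T cells carrying an NF-kB luciferase reporter; cells exposed to compound for about 14 hours before viability readout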
[6] = target: T5, Sentrin-specific protease 7 (Homo sapiens, UniProt Q9BQF6); assay: SENP7 protease inhibitors, SAR follow-up, biochemical, luminescence (AID 504497); assay type: functional
T5 sequence (Q9BQF6 whole entry): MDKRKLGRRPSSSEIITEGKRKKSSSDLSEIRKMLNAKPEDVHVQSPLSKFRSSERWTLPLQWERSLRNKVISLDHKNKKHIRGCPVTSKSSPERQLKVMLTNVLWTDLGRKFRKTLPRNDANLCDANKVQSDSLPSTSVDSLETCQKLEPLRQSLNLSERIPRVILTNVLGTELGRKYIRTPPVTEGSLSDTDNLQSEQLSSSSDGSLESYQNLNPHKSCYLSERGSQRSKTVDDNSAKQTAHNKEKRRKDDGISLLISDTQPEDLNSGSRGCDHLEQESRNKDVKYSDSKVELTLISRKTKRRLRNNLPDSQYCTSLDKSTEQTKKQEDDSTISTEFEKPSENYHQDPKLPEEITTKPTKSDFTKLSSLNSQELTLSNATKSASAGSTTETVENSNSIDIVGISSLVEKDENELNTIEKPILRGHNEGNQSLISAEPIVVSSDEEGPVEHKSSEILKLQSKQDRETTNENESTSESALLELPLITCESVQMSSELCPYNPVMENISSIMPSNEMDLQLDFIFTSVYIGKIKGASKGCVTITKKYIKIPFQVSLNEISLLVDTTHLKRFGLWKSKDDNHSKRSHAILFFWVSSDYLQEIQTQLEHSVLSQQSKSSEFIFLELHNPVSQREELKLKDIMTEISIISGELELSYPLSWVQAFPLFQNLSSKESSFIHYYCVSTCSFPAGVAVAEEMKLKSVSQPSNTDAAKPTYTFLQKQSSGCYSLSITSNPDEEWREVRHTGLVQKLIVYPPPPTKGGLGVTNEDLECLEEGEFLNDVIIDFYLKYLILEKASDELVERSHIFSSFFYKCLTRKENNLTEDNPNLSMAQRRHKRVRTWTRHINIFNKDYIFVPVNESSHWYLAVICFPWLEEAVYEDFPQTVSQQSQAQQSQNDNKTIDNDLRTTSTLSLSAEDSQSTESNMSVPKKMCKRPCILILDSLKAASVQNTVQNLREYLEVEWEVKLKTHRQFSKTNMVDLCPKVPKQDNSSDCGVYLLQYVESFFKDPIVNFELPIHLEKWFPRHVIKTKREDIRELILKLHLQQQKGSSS

[7] = target: T6, Sentrin-specific protease 8 (Homo sapiens, UniProt Q96LD8); assay: SENP8 protease inhibitors, SAR follow-up, biochemical, luminescence (AID 504501); assay type: functional
T6 sequence (Q96LD8 whole entry): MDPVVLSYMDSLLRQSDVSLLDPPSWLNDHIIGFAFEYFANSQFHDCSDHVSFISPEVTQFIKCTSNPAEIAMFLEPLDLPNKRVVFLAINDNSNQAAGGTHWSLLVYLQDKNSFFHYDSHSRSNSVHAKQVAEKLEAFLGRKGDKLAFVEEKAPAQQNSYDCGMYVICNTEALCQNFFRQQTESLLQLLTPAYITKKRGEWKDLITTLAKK

Caspase-3 [8] = target: T7, Caspase-3 (Homo sapiens, UniProt P42574); assay: SAR Analysis of small molecule inhibitors of Sentrin-specific proteases (SENPs) using a Caspase-3 Selectivity assay. [Related pubchem assays (depositor defined):AID2540, AID2599, AID434973, AID489001]; assay type: functional
T7 sequence (P42574 whole entry): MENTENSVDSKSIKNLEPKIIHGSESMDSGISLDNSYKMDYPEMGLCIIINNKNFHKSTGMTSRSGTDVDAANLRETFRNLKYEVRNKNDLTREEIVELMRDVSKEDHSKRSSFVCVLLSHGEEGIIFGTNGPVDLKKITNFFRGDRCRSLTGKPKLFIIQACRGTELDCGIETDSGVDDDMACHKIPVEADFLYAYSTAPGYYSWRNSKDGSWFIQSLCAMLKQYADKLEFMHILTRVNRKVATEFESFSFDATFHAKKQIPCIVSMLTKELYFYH

[9] = target: T8, Sentrin-specific protease 6 (Homo sapiens, UniProt Q9GZR1); assay: SAR Analysis of small molecule inhibitors of Sentrin-specific protease 6 (SENP6) using a Luminescent assay. [Related pubchem assays (depositor defined):AID2582, AID2599]; assay type: functional
T8 sequence (Q9GZR1 whole entry): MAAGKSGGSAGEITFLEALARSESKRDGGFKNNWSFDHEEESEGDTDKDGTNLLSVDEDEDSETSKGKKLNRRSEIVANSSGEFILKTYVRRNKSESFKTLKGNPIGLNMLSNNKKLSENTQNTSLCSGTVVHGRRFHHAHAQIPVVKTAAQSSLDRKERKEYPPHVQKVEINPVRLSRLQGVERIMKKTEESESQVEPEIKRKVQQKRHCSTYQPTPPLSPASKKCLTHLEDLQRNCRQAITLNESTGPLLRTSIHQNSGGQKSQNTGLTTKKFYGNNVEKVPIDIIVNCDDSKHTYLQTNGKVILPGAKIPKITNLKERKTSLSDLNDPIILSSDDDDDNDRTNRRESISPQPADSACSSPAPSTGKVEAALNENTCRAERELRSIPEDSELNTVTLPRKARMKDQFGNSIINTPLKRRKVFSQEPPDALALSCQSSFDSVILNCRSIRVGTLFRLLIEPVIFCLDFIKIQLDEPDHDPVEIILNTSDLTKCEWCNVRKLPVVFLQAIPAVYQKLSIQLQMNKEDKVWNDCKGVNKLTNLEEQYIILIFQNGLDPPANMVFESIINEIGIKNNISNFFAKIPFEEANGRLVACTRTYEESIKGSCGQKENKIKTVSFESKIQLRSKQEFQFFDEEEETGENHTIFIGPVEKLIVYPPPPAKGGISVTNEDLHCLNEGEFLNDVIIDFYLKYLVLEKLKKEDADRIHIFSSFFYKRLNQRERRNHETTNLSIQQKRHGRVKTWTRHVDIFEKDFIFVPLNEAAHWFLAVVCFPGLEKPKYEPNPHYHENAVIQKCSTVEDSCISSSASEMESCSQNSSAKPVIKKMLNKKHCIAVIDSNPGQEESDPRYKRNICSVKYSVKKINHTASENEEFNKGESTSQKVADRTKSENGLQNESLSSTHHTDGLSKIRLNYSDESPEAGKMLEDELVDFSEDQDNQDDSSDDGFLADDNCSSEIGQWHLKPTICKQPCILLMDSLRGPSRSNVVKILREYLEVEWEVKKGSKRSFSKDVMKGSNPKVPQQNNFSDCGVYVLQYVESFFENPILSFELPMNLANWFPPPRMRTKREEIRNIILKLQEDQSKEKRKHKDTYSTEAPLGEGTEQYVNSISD

[10] = target: FAD-linked sulfhydryl oxidase ALR (Homo sapiens, UniProt P55789); assay: inhibitors of human ALR sulfhydryl oxidase, dose response, biochemical, H2O2 detection, luminescence, cherry-pick (AID 493248)
FAD-linked sulfhydryl oxidase ALR, sequence (P55789 whole entry): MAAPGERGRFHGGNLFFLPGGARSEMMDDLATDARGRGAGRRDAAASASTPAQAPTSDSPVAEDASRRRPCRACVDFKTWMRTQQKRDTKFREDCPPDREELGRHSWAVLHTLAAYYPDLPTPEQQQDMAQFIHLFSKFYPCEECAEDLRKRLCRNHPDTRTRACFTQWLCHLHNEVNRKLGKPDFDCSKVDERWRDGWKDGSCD

[11] = target: T6, Sentrin-specific protease 8; assay type: functional
Caspase-3 [12] = target: T7, Caspase-3; assay type: functional
[13] = target: T5, Sentrin-specific protease 7; assay type: functional
[14] = target: T8, Sentrin-specific protease 6; assay type: functional

Cysteine protease ATG4B, sequence (Q9Y4P1 whole entry): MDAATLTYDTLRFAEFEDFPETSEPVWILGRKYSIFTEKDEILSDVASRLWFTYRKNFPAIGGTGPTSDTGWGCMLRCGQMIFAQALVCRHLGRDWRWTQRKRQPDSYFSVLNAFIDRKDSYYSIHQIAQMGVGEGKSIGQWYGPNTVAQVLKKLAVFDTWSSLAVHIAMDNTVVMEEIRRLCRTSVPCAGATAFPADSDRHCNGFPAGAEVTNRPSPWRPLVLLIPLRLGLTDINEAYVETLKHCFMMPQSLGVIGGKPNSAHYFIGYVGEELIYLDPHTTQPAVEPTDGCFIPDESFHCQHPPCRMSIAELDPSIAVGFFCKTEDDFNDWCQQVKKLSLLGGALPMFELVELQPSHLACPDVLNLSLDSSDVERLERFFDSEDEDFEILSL

For `COc1cc(/C=C/C(=O)O)cc(S(=O)(=O)Nc2cc(Cl)c(Cl)cc2Cl)c1OC`, the IC50 (Cysteine protease ATG4B) was 6.7 µM (active), the IC50 (Phospholipase A2) was 34.1 µM (inactive) and the IC50 (Aminopeptidase N) was 94.2 µM (active).
For `COc1ccccc1/C=C1/SC(=S)N(CCC(=O)Nc2cccnc2)C1=O`, the EC50 [1] was > 99 µM (inactive), the EC50 [2] was 52 µM (inactive) and the EC50 [3] was 69.2 µM (active). The EC50 [4] was 37.6 µM (inconclusive) and the IC50 [5] was > 80 µM (inactive).
With `Cc1cccc(CN2C(=O)N/C(=C/c3ccc(C)s3)C2=O)c1` the EC50 [1] was 87.8 µM (inactive), the EC50 [2] was > 99 µM (inactive) and the EC50 [3] was 27.5 µM (active). The EC50 [4] was > 300 µM (inconclusive).
With `O=[N+]([O-])c1ccc(/N=C/c2c[nH]c3ccccc23)cc1` the IC50 [6] was > 99 µM (inactive), the IC50 [7] was > 99 µM (inactive) and the IC50 (Caspase-3 [8]) was > 99 µM (inactive). For the same compound, the IC50 [9] was > 99 µM (inactive).
With `C/C(=N/O)c1ccc2ccc3ccccc3c2c1` the AC50 [10] was 5.54 µM (active), the IC50 [11] was 21.6 µM (active) and the IC50 (Caspase-3 [12]) was 38 µM (active). For the same compound, the IC50 [13] was 9.17 µM (active) and the IC50 [14] was 16.7 µM (active).
